# Measured values taken from patent US5723496A, “Method for prevention and treatment of harmful effects of intracellular acidosis” (priority 1995, dated 1998).
# Several values for one entry are separate records, joined by “and”; a condition that tells them apart may be missing. Equal entries are not always repeated. Entries after “also recorded” stand apart in the source; their conditions may differ.
# Columns and labels:
# [1] = test system: brains of newborn rat pups; assay: brain intracellular pH and lactate of rat pups before and after 7.5 min anoxia (in vivo NMR); set-up: species or system Sprague-Dawley rats
# Description: A Nicolet NMR System NT-200 (4.7T) was used for NMR experiments. Mice, rats or pups (Sprague-Dawley) were lightly anesthetized with ketamine hydrochloride, 50 mg/kg I.P., and placed in the NMR probe which contained an oval surface coil (one turn, 8×12 mm diameter) tunable to the resonance frequency of the proton and ^31 P. To eliminate signal contamination, scalp and temporal muscle were retracted. Field homogeneity was maximized by skimming on water proton signals. To produce anoxia, 100% nitrogen gas was rapidly infused (14 l/min) into the probe chamber. Anoxia could be reversed by infusion of air. Calibration studies using an oxygen meter (OM-1 Biological oxygen Meter, Micro-electrodes, Inc.) confirmed that this technique produced complete O2 depletion in the chamber or its reversal within 1 minute. ^1 H spectra were obtained at 199.97 MHz=z using a 1331-.tau.-2662 spin echo sequence with a .tau. delay of 68 ms (spectral width: 2 KHz, memory block: 4K, recycle time 2.7 seconds). The interpulse delay of the Hore sequence was adjusted so that the lactate resonance experienced least attenuation. ^31 P spectra were obtained at 80.99 MHz using a one pulse sequence (spectral width: 6 KHz, memory block: 4K, recycle time 2.7 seconds). The free induction decay (FID) like signals from remaining water proton signals were eliminated by applying sine function […]. The broad resonance with short T2 on ^31 P NMR spectra was removed using the convolution difference technique. Line broadening of 5 Hz and 30 Hz were applied as noise filter for proton and ^31 P spectra, respectively.
# These animals were designated to be the experimental group. Physiological saline was administered to the control group of rats. Each group consisted of 10 animals.
# On the last day of the administration, i.e. at day 10, the animals were each fixed in a special chamber set within a 4.7 T nuclear magnetic resonance apparatus. […]
# The pH level and the lactate concentration in the cerebral cells before and after anoxia were measured by nuclear magnetic resonance spectroscopy using the procedure described above.
# [2] = test system: adult mice exposed to anoxia; assay: survival of adult mice exposed to anoxia; assay type: in vivo, Adult Swiss mice; set-up: mortality, 2.5 minutes of anoxia / protection against 2.5 minutes anoxia: concentration or dose not given beside the values
# Description: Adult Swiss mice (BK-1 males, 20 g) purchased from Bantin & Kingman, Fremont, Calif. were used. Each batch consisted of 10 mice. Within each batch five mice were selected randomly as experimental animals and the remaining five as controls. Experimental mice received daily intraperitoneal injections of 0.25 ml of GES (50 mg/ml) for 14 days.
# At day 14, all mice within the same batch (5 experimental and 5 each of the […]) were placed in a specially designed chamber (26.5×24.5×21.0 cm). Anoxia/hypoxia was produced by infusion of pure nitrogen gas ([…]) into the chamber for 2.5 or 2.75 minutes. Anoxia/hypoxia was reversed immediately after these intervals by removing the chamber and placing the mice in a room air environment.
# The results are shown in FIG. 1 and discussed in detail above.
# [3] = set-up: species or system Adult Swiss mice; details: mouse, in vivo
# Description: (§1) Adult Swiss mice (BK-1 male 20 g) purchased from Bantin & Kingman, Fremont, Calif., were used. Each batch consisted of 15 mice. Within each batch, five mice were selected randomly to be in the GES, taurine, or control group. A taurine group was included to serve as additional control.
# Arterial blood gas sample was collected by puncture of the lower portion of the descending aorta under pentobarbital anesthesia. Analysis was performed on a Corning 168 Blood Gas Analyzer.
# anaerobic glycolysis = assay: brain lactate after 2.5 min anoxia; assay type: in vivo, Adult Swiss mice
# Description: as §1
# Brain lactate levels were determined for mice exposed to 2.5 minutes of anoxia as follows. Animals were exposed to 2.5 minutes of anoxia under pentobarbital anesthesia. Immediately after the exposure, animals were immersed into a liquid nitrogen. The frozen brains were removed by chiseling and extracted as described above. Lactate concentration was determined using the lactate dehydrogenase reaction.
# [4] = observation of behavior and respiratory pattern; assay type: in vivo, Adult Swiss mice; details: mouse, in vivo, ip
# Text: as §1
# [5] = in vivo; cited from earlier work
# [6] = cited from earlier work
SMILES,effect on pH depression in anoxia (in words) [1],"brain pH after anoxia ([1]; taurine 16 mmol/kg/day i.p., after 7.5 min anoxia)","brain pH before anoxia ([1]; taurine 16 mmol/kg/day i.p., day 10)",protection against anoxia / survival (in words) [2],"mortality, 2.5 minutes of anoxia ([2]; 14 days i.p. pretreatment)",protection against 2.5 minutes anoxia ([2]; FIG. 1),arterial pCO2 [3],arterial pH [3],arterial pO2 [3],"Lactate (anaerobic glycolysis; Table 4, n = 5, post 2.5 min anoxia)",lactate levels post 2.5 min anoxia (in words) (anaerobic glycolysis; among three groups),observable adverse effects in behavior or respiratory pattern [4],blood-brain barrier crossing (in words) [5],pKa value [6]
"NCCS(=O)(=O)O [taurine, 2-amineethanesulfonic acid, reference compound]",pH depression is considerably prevented,7.0,7.3,no difference between taurine pretreated animals (column B) and saline pretreated animal,40% and 60%,40%,41.26 ± 5.39 mmHg,7.26 ± 0.04,97.7 ± 12.9 mmHg,0.48 ± 0.08 mM,essentially identical among the three groups,did not show any observable adverse effects,does not cross the blood-brain barrier in adult mice; also recorded: does not cross the blood brain barrier freely in the adult mouse; also recorded: does cross the blood-brain barrier in newborns but it has no such effect in the adults,–
"Nc1ncnc2c1ncn2[C@@H]1O[C@H](COP(=O)(O)OP(=O)(O)OP(=O)(O)O)[C@@H](O)[C@H]1O [adenosine triphosphate (ATP), adenosine triphosphate]",–,–,–,–,–,–,–,–,–,–,–,–,–,6.95
"O=S(=O)(O)CCN1CCOCC1 [MES, 2-(N-morpholino) ethane sulfonic acid, reference compound]",–,–,–,–,–,–,–,–,–,–,–,–,–,6.1
